This passage reports TGI and GI50 results from PubChem BioAssay (NCI).

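Growth conditions: 96-well plates. Treatment: test compound, 48 hours, 5 concentrations. Analysis: linear interpolation between bracketing concentrations; unreached endpoints set to highest concentration. Here, GI50 denotes the concentration required for 50% inhibition of growth. TGI: total growth inhibition.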

Among the test systems are HCT-116 colon; HL-60(TB) leukemia; IGROV1 ovarian; K-562 leukemia; OVCAR-4 ovarian; SF-539 CNS; TK-10 renal; U251 CNS; MDA-MB-435.
Holding throughout (experiment): NCI tumour cell line growth inhibition, 48 h

Take `COc1ccc(/C=C/c2nc(=S)[nH][nH]2)cc1`: the TGI with HCT-116 colon, in the experiment with HL-60(TB) leukemia, in the experiment on IGROV1 ovarian, with K-562 leukemia, in the experiment with OVCAR-4 ovarian and in the experiment on SF-539 CNS was more than 100 µM each time. In addition, the TGI with TK-10 renal and in the experiment with U251 CNS was more than 100 µM in each case.

Consider `NS(=O)(=O)c1ccc(NC(=O)CC(=O)Nc2ccc(S(N)(=O)=O)cc2)cc1`, for which the TGI in the experiment with HCT-116 colon, with HL-60(TB) leukemia, with IGROV1 ovarian, in the experiment with K-562 leukemia, with OVCAR-4 ovarian and in the experiment with SF-539 CNS was more than 100 µM each time. The TGI with TK-10 renal and in the experiment with U251 CNS was more than 100 µM each time.

On to `Fc1ccc(F)c(C2SCc3nc4ccccc4n32)c1` (centres undefined), for which the TGI is more than 100 µM with HCT-116 colon; 53.9 µM in the experiment on HL-60(TB) leukemia; more than 100 µM in the experiment with IGROV1 ovarian; more than 100 µM in the experiment with K-562 leukemia; more than 100 µM with OVCAR-4 ovarian; more than 100 µM in the experiment with SF-539 CNS. Further, the TGI in the experiment on TK-10 renal and in the experiment on U251 CNS was more than 100 µM throughout.

For the molecule `CC(=O)OCC(OC(C)=O)C(OC(C)=O)C(OC(C)=O)C(=O)CNn1c(-c2ccccc2)nc2ccc(Br)cc2c1=O` (centres undefined), the TGI in the experiment on HCT-116 colon, in the experiment on HL-60(TB) leukemia, in the experiment on K-562 leukemia, with OVCAR-4 ovarian, in the experiment on SF-539 CNS and in the experiment on U251 CNS was more than 100 µM in each case.

Turning to `Cc1c(C2Cc3ccccc3N2C(=O)/C=C\C(=O)O)c2ccccc2n1C` (centres undefined), the TGI was 94.1 µM in the experiment on HCT-116 colon; 51.6 µM in the experiment with HL-60(TB) leukemia; 70.7 µM in the experiment on IGROV1 ovarian; more than 100 µM with K-562 leukemia; more than 100 µM with OVCAR-4 ovarian; 42.6 µM in the experiment on SF-539 CNS. The figures for the TGI with TK-10 renal and with U251 CNS were 44.6 µM and 40.6 µM, respectively.

As to `CCc1ccc(/C(C)=N/NC(N)=S)cc1`, the TGI in the experiment on HCT-116 colon, in the experiment on IGROV1 ovarian, in the experiment with K-562 leukemia, in the experiment on OVCAR-4 ovarian, in the experiment with SF-539 CNS and in the experiment with TK-10 renal was more than 100 µM each time. Also, the TGI in the experiment on U251 CNS was more than 100 µM.

`CCOC(=O)CC1=NC(=Nc2cc(Cl)ccc2Cl)SC1`: the TGI with HCT-116 colon, with HL-60(TB) leukemia, in the experiment on IGROV1 ovarian, in the experiment on K-562 leukemia, in the experiment with OVCAR-4 ovarian and in the experiment with SF-539 CNS was more than 100 µM each time. The TGI in the experiment with TK-10 renal and in the experiment with U251 CNS was more than 100 µM in each case.

Turning to `CCc1ccccc1-n1c2nc(=O)n(C)c(=O)c-2nc2ccccc21`, the TGI was determined as 25.8 µM in the experiment on HCT-116 colon; 35.4 µM in the experiment on IGROV1 ovarian; 31.8 µM in the experiment with K-562 leukemia; 18.2 µM with OVCAR-4 ovarian; 27.7 µM with SF-539 CNS; 35.4 µM with TK-10 renal. In the experiment with U251 CNS, the TGI worked out at 32.8 µM.

With `CN(C)c1nc(N(C)C)n2nc(-c3ccccc3[N+](=O)[O-])nc2n1`, the TGI with HCT-116 colon is 89.2 µM; in the experiment with HL-60(TB) leukemia, more than 100 µM; in the experiment with IGROV1 ovarian, more than 100 µM; in the experiment with K-562 leukemia, more than 100 µM; in the experiment on OVCAR-4 ovarian it was more than 100 µM; in the experiment with SF-539 CNS, more than 100 µM. The TGI in the experiment on TK-10 renal and in the experiment with U251 CNS was more than 100 µM in each case.

As to `CC1=Nc2c([nH]c(=S)[nH]c2=O)NC(c2ccc(Cl)c(Cl)c2)C1` (centres undefined), the TGI is 30.1 µM with HCT-116 colon; more than 100 µM with HL-60(TB) leukemia; 40.8 µM in the experiment on IGROV1 ovarian; more than 100 µM with K-562 leukemia; 57.9 µM in the experiment with OVCAR-4 ovarian; 46.5 µM with SF-539 CNS. The figures for the TGI in the experiment on TK-10 renal and with U251 CNS were more than 87.7 µM and 31.1 µM, respectively.

For `CCOC(=O)C1=C(NC(C)(C)C)OCC1=O`, the TGI in the experiment on HCT-116 colon, in the experiment on HL-60(TB) leukemia, in the experiment with IGROV1 ovarian, in the experiment on K-562 leukemia, in the experiment on OVCAR-4 ovarian and in the experiment with SF-539 CNS was more than 100 µM in each case. Also, the TGI with TK-10 renal and in the experiment on U251 CNS was more than 100 µM throughout.

Turning to `CC(C)CC(CNC(Cc1ccc(Cl)cc1)C(N)=O)NC(=O)C(Cc1cnc[nH]1)NC(=O)CNC(=O)C(NC(=O)C(C)NC(=O)C(Cc1c[nH]c2ccccc12)NC(=O)C(CCC(=O)O)NC(=O)C(N)Cc1ccccc1)C(C)C` (centres undefined), the TGI in the experiment on HCT-116 colon, in the experiment with HL-60(TB) leukemia, in the experiment with IGROV1 ovarian, in the experiment on K-562 leukemia, in the experiment on OVCAR-4 ovarian and in the experiment with SF-539 CNS was more than 133 µM throughout. The TGI in the experiment with U251 CNS was more than 133 µM.

As to `O=C(O)c1ccc(N=Nc2cc(S(=O)(=O)O)c3cccnc3c2O)cc1`, the TGI in the experiment with HCT-116 colon, in the experiment on HL-60(TB) leukemia, in the experiment with IGROV1 ovarian, in the experiment on K-562 leukemia, in the experiment on OVCAR-4 ovarian and in the experiment with SF-539 CNS was more than 100 µM each time. In addition, the TGI in the experiment with TK-10 renal and with U251 CNS was more than 100 µM in each case.

For `O=C(CCCNC(=O)OCc1ccccc1)OCc1ccc2c(c1)C(=O)c1ccccc1C2=O`, the TGI was more than 100 µM with HCT-116 colon; more than 100 µM in the experiment with HL-60(TB) leukemia; 99 µM in the experiment on IGROV1 ovarian; more than 100 µM with K-562 leukemia; more than 100 µM in the experiment with OVCAR-4 ovarian; 57.8 µM in the experiment with SF-539 CNS. Moreover, the TGI in the experiment with TK-10 renal and with U251 CNS was more than 100 µM in each case.

For `Cc1[nH]c(=O)nc(CC(O)(c2ccccc2)c2ccccc2)c1-c1ccccc1`, the TGI in the experiment on HCT-116 colon, in the experiment on HL-60(TB) leukemia, in the experiment on IGROV1 ovarian, with K-562 leukemia, in the experiment on OVCAR-4 ovarian and in the experiment on SF-539 CNS was more than 100 µM throughout. The TGI in the experiment on TK-10 renal and in the experiment on U251 CNS was more than 100 µM each time.

Take `O=C1OC(c2ccccc2)=N/C1=C\c1c(O)cc(O)cc1O`: the TGI with HCT-116 colon, with IGROV1 ovarian, with K-562 leukemia, in the experiment with OVCAR-4 ovarian, in the experiment with SF-539 CNS and with TK-10 renal was more than 100 µM each time. The same molecule yielded a TGI in the experiment with U251 CNS of more than 100 µM.

Turning to `COc1ccc(CCNCc2cccc(OC)c2OC)cc1OC`, the TGI in the experiment on HL-60(TB) leukemia, in the experiment on IGROV1 ovarian, in the experiment on K-562 leukemia, in the experiment on OVCAR-4 ovarian and in the experiment with TK-10 renal was more than 100 µM throughout.

With `O=C(/C=C/c1c(O)ccc2ccccc12)c1cccc2ccccc12`, the TGI is more than 100 µM with HCT-116 colon; more than 63.7 µM in the experiment on HL-60(TB) leukemia; more than 100 µM in the experiment on IGROV1 ovarian; more than 88.6 µM in the experiment with K-562 leukemia; more than 100 µM in the experiment on SF-539 CNS; more than 100 µM in the experiment on TK-10 renal. Further, the TGI in the experiment with U251 CNS is more than 100 µM.

As to `OCC(O)COc1c(Cl)ccc(Cl)c1Cl` (centres undefined), the TGI with HCT-116 colon, in the experiment with HL-60(TB) leukemia, in the experiment on IGROV1 ovarian, with K-562 leukemia, in the experiment on OVCAR-4 ovarian and with SF-539 CNS was more than 100 µM throughout. In addition, the TGI in the experiment with TK-10 renal and in the experiment on U251 CNS was more than 100 µM in each case.

In the case of `O=C(CCc1ccccc1)On1nnc2ccccc2c1=O`, the TGI in the experiment on HCT-116 colon, with HL-60(TB) leukemia, with IGROV1 ovarian, in the experiment on K-562 leukemia, with OVCAR-4 ovarian and in the experiment with SF-539 CNS was more than 100 µM each time. The TGI with TK-10 renal was 96.2 µM; in the experiment with U251 CNS, more than 100 µM.

As to `COc1ccc(/C(Cl)=C(\C=O)c2ccc(Br)cc2)cc1OC`, the TGI with HL-60(TB) leukemia was more than 100 µM; in the experiment with IGROV1 ovarian it was more than 100 µM; with K-562 leukemia, more than 100 µM; in the experiment with OVCAR-4 ovarian it was more than 100 µM; in the experiment on SF-539 CNS, 67.1 µM; with TK-10 renal it was more than 100 µM. Further, the TGI with U251 CNS was more than 100 µM.

With `C[C@H]1COC2(c3ccccc3)CCC(=O)N12` (some centres undefined), the TGI with HCT-116 colon, in the experiment with IGROV1 ovarian, with K-562 leukemia, in the experiment on OVCAR-4 ovarian, with SF-539 CNS and in the experiment on TK-10 renal was more than 100 µM each time. In the experiment on U251 CNS, this molecule displayed a TGI of more than 100 µM.

Regarding `N#CCC(=O)N/N=C1/C(=O)NC(=O)C(=O)C1c1nc2ccccc2s1` (centres undefined), the TGI with HCT-116 colon, with IGROV1 ovarian, in the experiment on K-562 leukemia, in the experiment on OVCAR-4 ovarian, with SF-539 CNS and in the experiment with TK-10 renal was more than 100 µM throughout. In the experiment on U251 CNS, this molecule returned a TGI of more than 100 µM.

On to `COC(=O)C1=C(c2cc(OC)c(OC)c(OC)c2)OC(c2cc(OC)c(OC)c(OC)c2)C1COC(C)=O` (centres undefined), for which the TGI in the experiment with HCT-116 colon is more than 100 µM; in the experiment with HL-60(TB) leukemia it was 30.5 µM; with IGROV1 ovarian, more than 100 µM; with K-562 leukemia, more than 100 µM; with OVCAR-4 ovarian, more than 100 µM; with SF-539 CNS, more than 100 µM. Besides, the TGI in the experiment on TK-10 renal and in the experiment on U251 CNS was more than 100 µM each time.

As to `Cc1ccc(S(=O)(=O)NC(CCC(=O)Nc2ccccc2)C(=O)Nc2ccccc2)cc1` (centres undefined), the GI50 was 0.273 µM in the experiment with HCT-116 colon; 0.55 µM in the experiment on HL-60(TB) leukemia; 0.437 µM in the experiment with MDA-MB-435; 0.283 µM in the experiment on SF-539 CNS; 0.326 µM in the experiment on U251 CNS. Also, the TGI was 1.31 µM in the experiment with HCT-116 colon; 3.08 µM in the experiment on HL-60(TB) leukemia; 2.06 µM in the experiment on MDA-MB-435; 0.89 µM with SF-539 CNS; 1.49 µM in the experiment with U251 CNS.
